In US12006318B2, “Crystalline forms of C-C chemokine receptor type 4 antagonist and uses thereof” (RAPT THERAPEUTICS, INC., priority 2019, dated 2024):
Like-named read-outs stand apart in the source and are kept apart here.

Tests used:
[1] = Storage stability at room temperature; assay type: physicochemical; conditions: after 36 months of storage at room temperature
[2] = Solubility (kinetic solubility) of salt forms at pH 2; assay type: physicochemical; conditions: for solubility: in pH 2 water
[3] = Bioavailability of salt forms in rats; assay type: in vivo; conditions: for bioavailability: in rats
[4] = Hygroscopicity of the crystalline salt; assay type: physicochemical

Row | SMILES | stability on storage [1] | stability on storage ([1]; listed as benzenesulfonic acid salt) | solubility (in words) ([2]; embodiment statement) | solubility ([2]; water at pH 2, aqueous buffer) | bioavailability (in words) ([3]; embodiment statement) | bioavailability ([3]; rat, in vivo, read-out: bioavailability) | hygroscopicity [4] | kinetic solubility as fraction of that of the HCl salt ([2]; at pH 2, relative to HCl salt) | solubility [2] | solubility compared with the amorphous HCl salt ([2]; relative to amorphous HCl salt) | bioavailability [3]
1 | C[C@H](c1ccc(Cl)cc1Cl)n1nc(C(F)(F)F)c2ncc(N3CC([C@H]4CCCN(CCO)C4)C3)nc21 [crystalline form A, 2-((R)-3-(1-(1-((R)-1-(2,4-Dichlorophenyl)ethyl)-3-(trifluoromethyl)-1H-pyrazolo[3,4-b]pyrazin-6-yl)azetidin-3-yl)piperidin-1-yl)ethan-1-ol benzene sulfonate] | outstanding stability | superior stability | good solubility | 411 µM | good bioavailability | 34% | low hygroscopicity | – | – | – | –
2 | C[C@H](c1ccc(Cl)cc1Cl)n1nc(C(F)(F)F)c2ncc(N3CC([C@H]4CCCN(CCO)C4)C3)nc21.Cc1ccc(S(=O)(=O)O)cc1 [para-toluenesulfonic acid salt] | – | – | – | – | – | – | – | ⅕ | 190 µM | less soluble | 22%
